Test results as given in BigSolDB 2.1.

CC(C)[C@@H](C)[C@@H](O)[C@H](O)[C@@H](C)[C@H]1CC[C@H]2[C@@H]3COC(=O)[C@H]4C[C@H](O)[C@H](O)C[C@]4(C)[C@H]3CC[C@]12C
solubility (mole fraction) (in acetone, 283.15 K): 0.00144
solubility (mole fraction) (in acetone, 288.15 K): 0.00176
solubility (mole fraction) (in acetone, 293.15 K): 0.00207
solubility (mole fraction) (in acetone, 298.15 K): 0.0024
solubility (mole fraction) (in acetone, 303.15 K): 0.00273
solubility (mole fraction) (in acetone, 308.15 K): 0.00303
solubility (mole fraction) (in acetone, 313.15 K): 0.00334
solubility (mole fraction) (in acetone, 318.15 K): 0.00365
solubility (mole fraction) (in acetone, 323.15 K): 0.00405
solubility (mole fraction) (in acetonitrile, 283.15 K): 0.000162
solubility (mole fraction) (in acetonitrile, 288.15 K): 0.000206
solubility (mole fraction) (in acetonitrile, 293.15 K): 0.000258
solubility (mole fraction) (in acetonitrile, 298.15 K): 0.000322
solubility (mole fraction) (in acetonitrile, 303.15 K): 0.000399
solubility (mole fraction) (in acetonitrile, 308.15 K): 0.000491
solubility (mole fraction) (in acetonitrile, 313.15 K): 0.0006
solubility (mole fraction) (in acetonitrile, 318.15 K): 0.000728
solubility (mole fraction) (in acetonitrile, 323.15 K): 0.000879
solubility (mole fraction) (in ethanol, 283.15 K): 0.00219
solubility (mole fraction) (in ethanol, 288.15 K): 0.00241
solubility (mole fraction) (in ethanol, 293.15 K): 0.00296
solubility (mole fraction) (in ethanol, 298.15 K): 0.0032
solubility (mole fraction) (in ethanol, 303.15 K): 0.00356
solubility (mole fraction) (in ethanol, 308.15 K): 0.00409
solubility (mole fraction) (in ethanol, 313.15 K): 0.00476
solubility (mole fraction) (in ethanol, 318.15 K): 0.00551
solubility (mole fraction) (in ethanol, 323.15 K): 0.00634
solubility (mole fraction) (in isopropanol, 283.15 K): 0.00136
solubility (mole fraction) (in isopropanol, 288.15 K): 0.00169
solubility (mole fraction) (in isopropanol, 293.15 K): 0.00209
solubility (mole fraction) (in isopropanol, 298.15 K): 0.00256
solubility (mole fraction) (in isopropanol, 303.15 K): 0.00312
solubility (mole fraction) (in isopropanol, 308.15 K): 0.00396
solubility (mole fraction) (in isopropanol, 313.15 K): 0.00464
solubility (mole fraction) (in isopropanol, 318.15 K): 0.00564
solubility (mole fraction) (in isopropanol, 323.15 K): 0.00667
